{"source": "paper PMC9120017", "about": "“Inhibition mechanism of the chloride channel TMEM16A by the pore blocker 1PBC” (Nature Communications, 2022)", "biological_target": "T1, wild-type mouse TMEM16A (Mus musculus, UniProt Q8BHY3)", "T1 construct": "expressed in transfected cells; host or cells: HEK293T", "T1 sequence (Q8BHY3 1-960)": "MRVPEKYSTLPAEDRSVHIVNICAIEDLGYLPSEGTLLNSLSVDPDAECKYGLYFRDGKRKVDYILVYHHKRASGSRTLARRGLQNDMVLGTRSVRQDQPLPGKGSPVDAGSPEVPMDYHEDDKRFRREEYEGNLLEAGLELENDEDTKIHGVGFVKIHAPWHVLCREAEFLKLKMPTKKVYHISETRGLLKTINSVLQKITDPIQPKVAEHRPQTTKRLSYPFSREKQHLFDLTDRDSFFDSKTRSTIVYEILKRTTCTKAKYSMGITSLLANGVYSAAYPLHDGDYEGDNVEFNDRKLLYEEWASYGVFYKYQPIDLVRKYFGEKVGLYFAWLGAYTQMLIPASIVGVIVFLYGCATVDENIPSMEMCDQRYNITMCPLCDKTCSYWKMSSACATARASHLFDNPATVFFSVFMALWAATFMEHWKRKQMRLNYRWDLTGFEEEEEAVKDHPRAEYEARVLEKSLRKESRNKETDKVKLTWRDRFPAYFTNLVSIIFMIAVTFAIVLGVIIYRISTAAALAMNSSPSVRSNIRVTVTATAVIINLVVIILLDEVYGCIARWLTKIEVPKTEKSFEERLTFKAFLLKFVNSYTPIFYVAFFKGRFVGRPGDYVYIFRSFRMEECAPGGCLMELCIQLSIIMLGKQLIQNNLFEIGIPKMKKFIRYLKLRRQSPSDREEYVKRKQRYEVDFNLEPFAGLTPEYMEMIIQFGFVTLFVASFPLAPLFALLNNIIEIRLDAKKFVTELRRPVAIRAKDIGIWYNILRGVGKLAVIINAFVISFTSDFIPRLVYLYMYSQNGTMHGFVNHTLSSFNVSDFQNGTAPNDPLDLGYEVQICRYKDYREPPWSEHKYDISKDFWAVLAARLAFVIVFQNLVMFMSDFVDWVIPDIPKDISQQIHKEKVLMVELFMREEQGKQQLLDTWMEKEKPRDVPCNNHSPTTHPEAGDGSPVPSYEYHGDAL", "assay": "Ultra-fast concentration-jump experiments, kinetics of 1PBC block in inside-out patches", "format": "cell-based", "conditions": "3 µM 1PBC; excised patches, ultra-fast perfusion", "protocol": "HEK293T cells were transfected with 3–4 μg DNA per 6 cm Petri dish using the calcium phosphate co-precipitation method and were used within 24–96 h after transfection. Recordings were performed on inside-out patches excised from HEK293T cells expressing the construct of interest. Patch pipettes were pulled from borosilicate glass capillaries (O.D. 1.5 mm, I.D. 0.86 mm, Sutter Instrument) and were fire-polished with a microforge (Narishige) before use. Pipette resistance was typically 3–8 MΩ when filled with the recording solutions detailed below. Seal resistance was typically 4 GΩ or higher. Voltage-clamp recordings were made using Axopatch 200B, Digidata 1550, and Clampex 10.7 (Molecular Devices). Analog signals were filtered with the in-built 4-pole Bessel filter at 10 kHz and were digitized at 20 kHz. Solution exchange was achieved using a gravity-fed system through a theta glass pipette mounted on an ultra-fast piezo-driven stepper (Siskiyou). […] All recordings were performed at 20 °C.\nSupplementary Fig. 2: State dependence of 1PBC block. a, Kinetics of 1PBC block at an intermediate 1PBC concentration and the indicated sub- saturating Ca2+ concentrations in ultra-fast concentration- jump experiments at + 8 0 m V in the inside- out configuration. 1PBC was applied from the intracellular side. […] 6 µM (as determined in Fig. 2a, b) and kon = 1 x 106 M-1s-1. […]"}
{"smiles": "N#Cc1c(C(F)(F)F)cc(O)n2c1nc1ccccc12", "note": "[1PBC]", "values": [{"measurement": "Kinetics of block (time constant)", "value": "~ 50 ms"}]}
